# Laboratory results published in paper PMC11435058, “Synthesis of New Thiazole-Privileged Chalcones as Tubulin Polymerization Inhibitors with Potential Anticancer Activities” (Pharmaceuticals, 2024).
# What was measured:
# MDA-MB-468 = experiment: NCI-60 anticancer screen (SRB; single dose and five doses); format: cell-based, human
# Method in brief: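 NCI panel of about 60 human tumor cell lines treated with compound at a single concentration (10μM) for 48 h. Growth measured by SRB protein staining and expressed as percent growth of treated versus untreated control cells.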
# OVCAR-3 = experiment: cells; settings: Homo sapiens
# HL-60(TB) = experiment: NCI-60 anticancer screen (SRB; single dose and five doses); settings: Homo sapiens
# MOLT-4 = experiment: as above; settings: Homo sapiens
# A549/ATCC = experiment: as above; settings: Homo sapiens
# NCI-H226 = experiment: as above; settings: Homo sapiens
# NCI-H322M = experiment: as above; settings: Homo sapiens
# NCI-H460 = experiment: as above; settings: Homo sapiens
# NCI-H522 = experiment: as above; settings: Homo sapiens
# COLO 205 = experiment: as above; settings: Homo sapiens
# HCT-15 = experiment: as above; settings: Homo sapiens
# SW-620 = experiment: as above; settings: Homo sapiens
# SF-268 = experiment: as above; settings: Homo sapiens
# SNB-75 = experiment: as above
# MALME-3M = experiment: as above; settings: Homo sapiens
# M14 = experiment: as above; settings: Homo sapiens
# SK-MEL-2 = experiment: as above; settings: Homo sapiens
# UACC-257 = experiment: as above; settings: Homo sapiens
# 786-0 = experiment: as above; settings: Homo sapiens
# A498 = experiment: as above; settings: Homo sapiens
# ACHN = experiment: as above; settings: Homo sapiens
# RXF 393 = experiment: as above; settings: Homo sapiens
# SN12C = experiment: as above; settings: Homo sapiens
# PC-3 = experiment: as above; settings: Homo sapiens
# BT-549 = experiment: as above; settings: Homo sapiens
# [1] = 48 h, read-out: Growth Percentage
smiles,measurement,setting,value
"Cc1[nH]c(=S)sc1C(=O)/C=C/c1cccc(Cl)c1 [2e, (E)-3-(3-Chlorophenyl)-1-(4-Methyl-2-Thioxo-2,3-Dihydrothiazol-5-yl)Prop-2-En-1-One]",activity at 10 µM,"MDA-MB-468; Homo sapiens, 48 h, MDA-MB-468, dose of 10 μM, read-out: Growth Percentage",-7.12%
same,IC50,"MDA-MB-468; Homo sapiens, MDA-MB-468, MDA-MB-468, Breast Cancer, five dose",12.6 µM
same,GI50,"MDA-MB-468; Homo sapiens, MDA-MB-468, Breast Cancer, five dose",3.8 µM
same,CC50,"MDA-MB-468; Homo sapiens, MDA-MB-468, Breast Cancer, five dose, read-out: LC50 (the source's name)",46.8 µM
same,TGI,"MDA-MB-468; MDA-MB-468, Breast Cancer, five dose",15.85 µM
same,GI50,OVCAR-3; OVCAR-3,2.29 µM
same,IC50,OVCAR-3; OVCAR-3,4.17 µM
same,activity at 10 µM,"OVCAR-3; OVCAR-3, 48 h, read-out: Growth Percentage",8.26%
same,CC50,"OVCAR-3; OVCAR-3, read-out: LC50",22.9 µM
same,IC (TGI),"OVCAR-3; OVCAR-3, read-out: TGI",6.03 µM
same,GI50,HL-60(TB); HL-60,2.24 µM
same,IC50,HL-60(TB); HL-60,4.27 µM
same,activity at 10 µM,"HL-60(TB); HL-60, 48 h, read-out: Growth Percentage",25.3%
same,CC50,"HL-60(TB); HL-60, read-out: LC50",> 100 µM
same,IC (TGI),"HL-60(TB); HL-60, read-out: TGI",7.08 µM
same,GI50,MOLT-4; MOLT-4,2.82 µM
same,IC50,MOLT-4; MOLT-4,4.27 µM
same,activity at 10 µM,"MOLT-4; MOLT-4, 48 h, read-out: Growth Percentage",19.8%
same,CC50,"MOLT-4; MOLT-4, read-out: LC50",> 100 µM
same,IC (TGI),"MOLT-4; MOLT-4, read-out: TGI",> 100 µM
same,GI50,A549/ATCC; A549,4.79 µM
same,IC50,A549/ATCC; A549,7.41 µM
same,activity at 10 µM,"A549/ATCC; A549, 48 h, read-out: Growth Percentage",26.5%
same,CC50,"A549/ATCC; A549, read-out: LC50",> 100 µM
same,IC (TGI),"A549/ATCC; A549, read-out: TGI",47.9 µM
same,GI50,NCI-H226; NCI-H226,4.37 µM
same,IC50,NCI-H226; NCI-H226,29.5 µM
same,activity at 10 µM,"NCI-H226; NCI-H226, 48 h, read-out: Growth Percentage",32.7%
same,CC50,"NCI-H226; NCI-H226, read-out: LC50",> 100 µM
same,IC (TGI),"NCI-H226; NCI-H226, read-out: TGI",38.9 µM
same,GI50,NCI-H322M,6.03 µM
same,IC50,NCI-H322M,16.2 µM
same,activity at 10 µM,NCI-H322M; [1],50.1%
same,CC50,NCI-H322M; read-out: LC50,85.1 µM
same,IC (TGI),NCI-H322M; read-out: TGI,26.3 µM
same,GI50,NCI-H460; NCI-H460,2.75 µM
same,IC50,NCI-H460; NCI-H460,3.55 µM
same,activity at 10 µM,"NCI-H460; NCI-H460, 48 h, read-out: Growth Percentage",12.1%
same,CC50,"NCI-H460; NCI-H460, read-out: LC50",45.7 µM
same,IC (TGI),"NCI-H460; NCI-H460, read-out: TGI",7.59 µM
same,GI50,NCI-H522; NCI-H522,4.57 µM
same,IC50,NCI-H522; NCI-H522,11.5 µM
same,activity at 10 µM,"NCI-H522; NCI-H522, 48 h, read-out: Growth Percentage",22%
same,CC50,"NCI-H522; NCI-H522, read-out: LC50",45.7 µM
same,IC (TGI),"NCI-H522; NCI-H522, read-out: TGI",17.4 µM
same,GI50,COLO 205; COLO 205,3.55 µM
same,IC50,COLO 205; COLO 205,5.25 µM
same,activity at 10 µM,"COLO 205; COLO 205, 48 h, read-out: Growth Percentage",70.7%
same,CC50,"COLO 205; COLO 205, read-out: LC50",51.3 µM
same,IC (TGI),"COLO 205; COLO 205, read-out: TGI",14.4 µM
same,GI50,HCT-15; HCT-15,2.09 µM
same,IC50,HCT-15; HCT-15,3.55 µM
same,activity at 10 µM,"HCT-15; HCT-15, 48 h, read-out: Growth Percentage",-22%
same,CC50,"HCT-15; HCT-15, read-out: LC50",46.8 µM
same,IC (TGI),"HCT-15; HCT-15, read-out: TGI",5.89 µM
same,GI50,SW-620; SW-620,1.91 µM
same,IC50,SW-620; SW-620,3.16 µM
same,activity at 10 µM,"SW-620; SW-620, 48 h, read-out: Growth Percentage",8.6%
same,CC50,"SW-620; SW-620, read-out: LC50",7.59 µM
same,IC (TGI),"SW-620; SW-620, read-out: TGI",3.8 µM
same,GI50,SF-268; SF-268,3.72 µM
same,IC50,SF-268; SF-268,7.59 µM
same,activity at 10 µM,"SF-268; SF-268, 48 h, read-out: Growth Percentage",51.8%
same,CC50,"SF-268; SF-268, read-out: LC50",97.7 µM
same,IC (TGI),"SF-268; SF-268, read-out: TGI",17 µM
same,GI50,"SNB-75; Homo sapiens, SNB-75",1.66 µM
same,IC50,"SNB-75; Homo sapiens, SNB-75",3.8 µM
same,activity at 10 µM,"SNB-75; Homo sapiens, SNB-75, 48 h, read-out: Growth Percentage",8.74%
same,TGI,"SNB-75; five-dose, CNS Cancer SNB-75",3.63 µM
same,GI50,MALME-3M,2.24 µM
same,IC50,MALME-3M,5.13 µM
same,activity at 10 µM,MALME-3M; [1],86.9%
same,CC50,MALME-3M; read-out: LC50,50.1 µM
same,IC (TGI),MALME-3M; read-out: TGI,5.75 µM
same,GI50,M14; M14,2.88 µM
same,IC50,M14; M14,4.17 µM
same,activity at 10 µM,"M14; M14, 48 h, read-out: Growth Percentage",40.2%
same,IC (TGI),"M14; M14, read-out: TGI",9.55 µM
same,GI50,SK-MEL-2; SK-MEL-2,10.5 µM
same,IC50,SK-MEL-2; SK-MEL-2,29.5 µM
same,activity at 10 µM,"SK-MEL-2; SK-MEL-2, 48 h, read-out: Growth Percentage",32.1%
same,CC50,"SK-MEL-2; SK-MEL-2, read-out: LC50",70.8 µM
same,IC (TGI),"SK-MEL-2; SK-MEL-2, read-out: TGI",27.5 µM
same,GI50,UACC-257; UACC-257,3.63 µM
same,IC50,UACC-257; UACC-257,9.77 µM
same,activity at 10 µM,"UACC-257; UACC-257, 48 h, read-out: Growth Percentage",52.7%
same,CC50,"UACC-257; UACC-257, read-out: LC50",63.1 µM
same,IC (TGI),"UACC-257; UACC-257, read-out: TGI",14.8 µM
same,GI50,786-0; 786-0,2.51 µM
same,IC50,786-0; 786-0,4.07 µM
same,activity at 10 µM,"786-0; 786-0, 48 h, read-out: Growth Percentage",13.3%
same,CC50,"786-0; 786-0, read-out: LC50",37.1 µM
same,IC (TGI),"786-0; 786-0, read-out: TGI",6.31 µM
same,GI50,A498; A498,19.5 µM
same,IC50,A498; A498,47.9 µM
same,activity at 10 µM,"A498; A498, 48 h, read-out: Growth Percentage, A498, dose of 10 μM",98%
same,CC50,"A498; A498, read-out: LC50",91.2 µM
same,IC (TGI),"A498; A498, read-out: TGI",42.7 µM
same,GI50,ACHN,2.29 µM
same,IC50,ACHN,3.72 µM
same,activity at 10 µM,ACHN; [1],22.9%
same,CC50,ACHN; read-out: LC50,21.4 µM
same,IC (TGI),ACHN; read-out: TGI,6.03 µM
same,GI50,RXF 393; RXF 393,1.91 µM
same,IC50,RXF 393; RXF 393,5.13 µM
same,activity at 10 µM,"RXF 393; RXF 393, 48 h, read-out: Growth Percentage",10.7%
same,CC50,"RXF 393; RXF 393, read-out: LC50",10 µM
same,IC (TGI),"RXF 393; RXF 393, read-out: TGI",4.37 µM
same,GI50,SN12C,2 µM
same,IC50,SN12C,3.55 µM
same,activity at 10 µM,SN12C; [1],12%
same,CC50,SN12C; read-out: LC50,8.91 µM
same,IC (TGI),SN12C; read-out: TGI,4.27 µM
same,GI50,PC-3; PC-3,2.88 µM
same,IC50,PC-3; PC-3,4.9 µM
same,activity at 10 µM,"PC-3; PC-3, 48 h, read-out: Growth Percentage",31.8%
same,CC50,"PC-3; PC-3, read-out: LC50",> 100 µM
same,IC (TGI),"PC-3; PC-3, read-out: TGI",13.8 µM
same,GI50,BT-549; BT-549,2.24 µM
same,IC50,BT-549; BT-549,5.89 µM
same,activity at 10 µM,"BT-549; BT-549, 48 h, read-out: Growth Percentage",2.28%
same,IC (TGI),"BT-549; BT-549, read-out: TGI",6.17 µM
